Read-outs that look alike come from different tables or passages of the source.
Tests used:
[1] = test system: hormone-receptor-positive breast cancer; settings: cited from earlier work
IGF-1R = molecular target: T1, IGF-1R (Homo sapiens, UniProt P08069); assay: IGF-1R phosphotyrosine signal in 3T3-IGF-1R tumors; assay type: in vivo; settings: FIG. 4
T1 construct: expressed in transfected cells; host or cells: NIH-3T3 (mouse fibroblast) transfectant, grown as tumors in athymic mice

[2] = test system: tumors of the transfectant IGF-1R over-expressing NIH-3T3 cell line; assay: 3T3-IGF-1R tumor growth in vivo (athymic mice, intraperitoneal administration); settings: FIG. 5
Method: When incubated with cells, fully human monoclonal antibodies that are highly specific and potent inhibitors of IGF-1-induced receptor autophosphorylation induced down-regulation of IGF-1R by receptor internalization. […] The serum concentration of anti-IGF-1R antibodies that led to 50% growth inhibition was 20 μg/ml at Day 1, and 13 μg/ml at Day 9. Similar anti-tumor studies were extended to human tumor xenograft models. As a single agent, anti-IGF-1R antibodies inhibited the growth of several xenograft models including breast, lung and colorectal carcinomas.

For `CC/C(=C(\c1ccccc1)c1ccc(OCCN(C)C)cc1)c1ccccc1` [Tamoxifen], which reduction of recurrence ([1]; post-menopausal women) is on record?
Its reduction of recurrence is 40-50%.

What about the reduction of recurrence ([1]; pre-menopausal women) of the same molecule?
Its reduction of recurrence is 30-50%.

B1: 2.13.2: fully human anti-IGF-1R monoclonal antibody; hybridoma ATCC PTA-2788 (antibody)
heavy: EVQLLESGGGLVQPGGSLRLSCTASGFTFSSYAMNWVRQAPGKGLEWVSAISGSGGTTFYADSVKGRFTISRDNSRTTLYLQMNSLRAEDTAVYYCAKDLGWSDSYYYYYGMDVWGQGTTVTVSSASTKGPSVFPLAPCSRSTSESTAALGCLVKDYFPEPVTVSWNSGALTSGVHTFPAVLQSSGLYSLSSVVTVPSSNFGTQTYTCNVDHKPSNTKVDKTVERKCCVECPPCPAPPVAGPSVFLFPPKPKDTLMISRTPEVTCVVVDVSHEDPEVQFNWYVDGVEVHNAKTKPREEQFNSTFRVVSVLTVVHQDWLNGKEYKCKVSNKGLPAPIEKTISKTKGQPREPQVYTLPPSREEMTKNQVSLTCLVKGFYPSDIAVEWESNGQPENNYKTTPPMLDSDGSFFLYSKLTVDKSRWQQGNVFSCSVMHEALHNHYTQKSLSLSPGK
light: DIQMTQFPSSLSASVGDRVTITCRASQGIRNDLGWYQQKPGKAPKRLIYAASRLHRGVPSRFSGSGSGTEFTLTISSLQPEDFATYYCLQHNSYPCSFGQGTKLEIKRTVAAPSVFIFPPSDEQLKSGTASVVCLLNNFYPREAKVQWKVDNALQSGNSQESVTEQDSKDSTYSLSSTLTLSKADYEKHKVYACEVTHQGLSSPVTKSFNRGEC
With B1 as the molecule, how does the “IGF-1R phosphotyrosine signal in 3T3-IGF-1R tumors” value (IGF-1R) read?
Its value is “reduce IGF-1R phosphotyrosine signal”.

And the “3T3-IGF-1R tumor growth in vivo” value [2]?
The value was “inhibits 3T3-IGF-1R tumor growth in vivo”.

From patent US7618626B2, “Combination treatment for non-hematologic malignancies” (Pfizer Inc, priority 2004, dated 2009)
